For one test, the target named is Cathepsin D (Cat D) (Homo sapiens (Human), UniProt P07339). Put plainly: In vitro enzymatic Cathepsin D (Cat D) FRET assay. To be noted: read-out: CatD IC50. It counts as biochemical. In outline: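 CHO-expressed recombinant Cat D cleaves a fluorophore/quencher FRET peptide (20 nM) in 0.05 M citrate pH 3.5, 5 mM CHAPS, 10% DMSO final, over 1 h. Tris addition neutralizes pH to stop the reaction; fluorescence read at excitation 500 nm, emission 580 nm.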

Test [1] relates to Abeta 40 in CSF and brain. Put plainly: In vivo inhibition of beta-secretase: Abeta 40 reduction in CSF and brain of the rat. Conditions: 10 mpk (unless otherwise noted), after 4 hrs. The text has this: In Vivo Inhibition of Beta-Secretase
Several animal models, including mouse, rat, dog, and monkey, may be used to screen for inhibition of beta-secretase activity in vivo following administration of a test compound sample. Animals used in this invention can be wild type, transgenic, or gene knockout animals. […] A separate group of animals receive 2% hydroxypropyl methylcellulose, 1% Tween80 alone, containing no test compound, and serve as a vehicle-control group. At the end of the test period, animals are sacrificed and brain tissues, plasma or cerebrospinal fluid are collected. […] Homogenates are centrifuged at 355,000 g, 4° C. for 30 minutes. CSF or brain supernatants are then analyzed for the presence of A-beta peptide by specific sandwich ELISA assays based on ECL (Electrochemiluminescence) technology. For example, rat Abeta40 is measured using biotinylated-4G8 (Signet) as a capture antibody and Fab40 (an in-house antibody specific to the C-terminal of Abeta40) as a detection antibody.
Actual vehicles used: Oral: 2% HPMC, 1% Tween80, pH 2.2

Test [2] concerns the target Beta Secretase enzyme (BACE) (Homo sapiens (Human), UniProt P56817). The test is described as follows: In vitro enzymatic BACE FRET assay. It counts as biochemical. To be noted: average; read-out: BACE 1 FRET assay IC50. In outline: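 A quenched fluorophore-peptide spanning the BACE cleavage site served as substrate at 50 nM, with one-hour incubation in pH 4.2 acetate buffer containing 100 uM genapol and 10% DMSO final. Fluorescence was measured after quenching with Tris to neutral pH.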

For test [3], the system named is Aβ40 in conditioned medium of cells stably expressing Amyloid Precursor Protein (APP). The test is described as follows: In vitro BACE cell-based assay (Aβ40 sandwich ELISA). To be noted: Homo sapiens. In outline:
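Aβ40 in supernatants was measured by time-resolved fluorescence sandwich ELISA using pAb40 capture and biotinylated 6E10 detection, with antibody incubations at 4 °C. Stable APP cells were exposed to compounds for 24 h in a 10-point series (top dose 100 or 10 µM, 0.1% DMSO). IC50 was fitted from the concentration-response.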

Setting [4] is: Abeta 40, rat CSF, read-out: % reduction of rat CSF levels at 10 pmk.
The mark [5] stands for this setting: Abeta 40, rat brain, read-out: % reduction of rat brain levels at 10 mpk.
Where [6] appears, read: average IC50, cathepsin D enzyme assay.
Setting [7] is: HEK293, HEK cells, average, read-out: HEK cell assay IC50.
Setting [8] is: HEK293, read-out: HEK cell assay IC50.

pIC50: −log10 of the molar value. Read-outs that look alike come from different tables or passages of the source.

Sequence of Cathepsin D (Cat D) (P07339 65-412, species assumed): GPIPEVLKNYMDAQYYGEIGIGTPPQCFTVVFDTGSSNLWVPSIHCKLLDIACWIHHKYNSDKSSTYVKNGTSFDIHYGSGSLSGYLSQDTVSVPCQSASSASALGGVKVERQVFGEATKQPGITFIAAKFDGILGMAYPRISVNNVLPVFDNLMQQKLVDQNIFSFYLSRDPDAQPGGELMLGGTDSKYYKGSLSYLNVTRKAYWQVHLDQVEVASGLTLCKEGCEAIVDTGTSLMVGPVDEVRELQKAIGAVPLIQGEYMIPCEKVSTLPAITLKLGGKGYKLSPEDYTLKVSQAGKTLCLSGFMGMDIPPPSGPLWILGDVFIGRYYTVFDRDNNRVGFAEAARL
Sequence of Beta Secretase enzyme (BACE) (P56817 46-501): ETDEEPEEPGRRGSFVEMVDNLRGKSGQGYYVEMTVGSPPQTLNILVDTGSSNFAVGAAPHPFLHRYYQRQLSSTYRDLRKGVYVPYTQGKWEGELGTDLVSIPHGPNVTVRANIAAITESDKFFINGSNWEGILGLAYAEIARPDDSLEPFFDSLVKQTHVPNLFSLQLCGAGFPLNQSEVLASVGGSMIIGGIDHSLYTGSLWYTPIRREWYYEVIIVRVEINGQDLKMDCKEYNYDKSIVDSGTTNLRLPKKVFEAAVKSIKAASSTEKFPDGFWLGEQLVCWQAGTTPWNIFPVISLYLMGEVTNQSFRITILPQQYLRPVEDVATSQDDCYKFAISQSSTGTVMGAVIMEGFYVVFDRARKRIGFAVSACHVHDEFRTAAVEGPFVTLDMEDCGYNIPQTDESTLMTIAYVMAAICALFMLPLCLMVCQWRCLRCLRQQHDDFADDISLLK

For orientation: pIC50 means the IC50 on a negative log10 scale, so that one unit is a factor of ten. `COc1cnc(C(=O)Nc2ccc(F)c([C@]3(CF)C[C@@H](C(F)(F)F)OC(N)=N3)c2)cn1` [Example 2, N-(3-((4S,6S)-2-amino-4-(fluoromethyl)-6-(trifluoromethyl)-5,6-dihydro-4H-1,3-oxazin-4-yl)-4-fluorophenyl)-5-methoxypyrazine-2-carboxamide]: the pIC50 on Cathepsin D (Cat D) (average IC50) is below 3.40. The inhibition in vivo at 10 mg/kg stood at 70% in test [1] (setting [4]) and 61% in test [1] (setting [5]).

As for `NC1=N[C@](CF)(c2cc(Nc3cc(Cl)ccn3)ccc2F)C[C@@H](C(F)(F)F)O1` [Example 16, (4S,6S)-4-(5-((4-chloropyridin-2-yl)amino)-2-fluorophenyl)-4-(fluoromethyl)-6-(trifluoromethyl)-5,6-dihydro-4H-1,3-oxazin-2-amine], the pIC50 at Cathepsin D (Cat D) (setting [6]) is 2.79. Besides, the inhibition in vivo at 10 mg/kg in test [1] (setting [4]) is 83%; in test [1] (setting [5]) it was 87%.

Consider `Cc1cc(C#N)cnc1C(=O)Nc1ccc(F)c([C@]2(CF)C[C@@H](C(F)(F)F)OC(N)=N2)c1` [Example 51, N-(3-((4S,6S)-2-amino-4-(fluoromethyl)-6-(trifluoromethyl)-5,6-dihydro-4H-1,3-oxazin-4-yl)-4-fluorophenyl)-5-cyano-3-methylpicolinamide], for which the inhibition in vivo at 10 mg/kg was 68% in test [1] (setting [4]) and 59% in test [1] (setting [5]).

On to `NC1=N[C@](CF)(c2cc(NC(=O)c3ccc(Br)cn3)ccc2F)C[C@@H](C(F)(F)F)O1` [Example 52, N-(3-((4S,6S)-2-amino-4-(fluoromethyl)-6-(trifluoromethyl)-5,6-dihydro-4H-1,3-oxazin-4-yl)-4-fluorophenyl)-5-bromopicolinamide], for which the pIC50 on Cathepsin D (Cat D) (average IC50) was below 3.40. The inhibition in vivo at 10 mg/kg turned out to be 61% in test [1] (setting [4]) and 54% in test [1] (setting [5]).

For `C[C@@]1(c2cc(NC(=O)c3ncc(C#N)cc3Cl)cc(F)c2F)C[C@@H](C(F)(F)F)OC(N)=N1` [Example 167, N-(3-((4S,6S)-2-amino-4-methyl-6-(trifluoromethyl)-5,6-dihydro-4H-1,3-oxazin-4-yl)-4,5-difluorophenyl)-3-chloro-5-cyanopicolinamide], the pIC50 at Cathepsin D (Cat D) (setting [6]) was 3.95. In addition, the inhibition in vivo at 10 mg/kg amounted to 42% in test [1] (setting [4]) and 15% in test [1] (setting [5]).

As to `COc1ccc(C(=O)Nc2cc(F)c(F)c([C@]3(C)C[C@@H](C(F)(F)F)OC(N)=N3)c2)nc1` [Example 201, N-(3-((4S,6S)-2-amino-4-methyl-6-(trifluoromethyl)-5,6-dihydro-4H-1,3-oxazin-4-yl)-4,5-difluorophenyl)-5-methoxypicolinamide], on Cathepsin D (Cat D) (average), the pIC50 was 3.12. Moreover, the inhibition in vivo at 10 mg/kg in test [1] (setting [4]) was 75%; in test [1] (setting [5]) it was 76%.

Regarding `COc1cc(Cl)cnc1C(=O)Nc1cc(C)c(F)c([C@]2(CF)C[C@@H](C(F)(F)F)OC(N)=N2)c1` [Example 222, N-(3-((4S,6S)-2-amino-4-(fluoromethyl)-6-(trifluoromethyl)-5,6-dihydro-4H-1,3-oxazin-4-yl)-4-fluoro-5-methylphenyl)-5-chloro-3-methoxypicolinamide], the pIC50 was 7.04 in test [2], 7.54 in test [3] (setting [7]) and below 3.40 at Cathepsin D (Cat D) (average).

With `Cc1cc(NC(=O)c2ccc(C#N)cn2)cc([C@]2(CF)C[C@@H](C(F)(F)F)OC(N)=N2)c1F` [Example 225, N-(3-((4S,6S)-2-amino-4-(fluoromethyl)-6-(trifluoromethyl)-5,6-dihydro-4H-1,3-oxazin-4-yl)-4-fluoro-5-methylphenyl)-5-cyanopicolinamide], the figures for the pIC50 (in test [2]; in test [3] (setting [7]); on Cathepsin D (Cat D) (average)) were 7.24, 7.62 and below 3.40, respectively.

In the case of `COc1cnc(C(=O)Nc2cc(C)c(F)c([C@]3(CF)C[C@@H](C(F)(F)F)OC(N)=N3)c2)c(C)c1` [Example 226, N-(3-((4S,6S)-2-amino-4-(fluoromethyl)-6-(trifluoromethyl)-5,6-dihydro-4H-1,3-oxazin-4-yl)-4-fluoro-5-methylphenyl)-5-methoxy-3-methylpicolinamide], the values for the pIC50 (in test [2]; in test [3] (setting [7]); at Cathepsin D (Cat D) (average)) were 7.32, 7.31 and 3.11, respectively.

Consider `Cc1cc(OC(F)F)cnc1C(=O)Nc1cc(C)c(F)c([C@]2(CF)C[C@@H](C(F)(F)F)OC(N)=N2)c1` [Example 228, N-(3-((4S,6S)-2-amino-4-(fluoromethyl)-6-(trifluoromethyl)-5,6-dihydro-4H-1,3-oxazin-4-yl)-4-fluoro-5-methylphenyl)-5-(difluoromethoxy)-3-methylpicolinamide], for which the pIC50 in test [2] is 7.49; in test [3] (setting [7]) it was 7.55; at Cathepsin D (Cat D) (average), 3.11.

For the molecule `Cc1cc(Nc2ncnc3cc(Cl)cnc23)cc([C@]2(CF)C[C@@H](C(F)(F)F)OC(N)=N2)c1F` [Example 230, (4S,6S)-4-(5-((7-chloropyrido[3,2-d]pyrimidin-4-yl)amino)-2-fluoro-3-methylphenyl)-4-(fluoromethyl)-6-(trifluoromethyl)-5,6-dihydro-4H-1,3-oxazin-2-amine], the figures for the pIC50 (in test [2]; in test [3] (setting [7]); on Cathepsin D (Cat D) (average)) were 7.31, 7.24 and below 3.40, respectively.

Take `COc1cccnc1Nc1cc(F)c(F)c([C@]2(C)C[C@@H](C(F)(F)F)OC(N)=N2)c1` [Example 231, (4S,6S)-4-(2,3-difluoro-5-((3-methoxypyridin-2-yl)amino)phenyl)-4-methyl-6-(trifluoromethyl)-5,6-dihydro-4H-1,3-oxazin-2-amine]: the figures for the pIC50 (in test [2]; in test [3] (setting [7]); on Cathepsin D (Cat D) (average)) were 6.75, 6.79 and 3.55, respectively.

Turning to `Cc1cc(C#N)cnc1C(=O)Nc1cc(F)c(F)c([C@]2(CF)C[C@@H](C(F)(F)F)OC(N)=N2)c1` [Example 232, N-(3-((4S,6S)-2-amino-4-(fluoromethyl)-6-(trifluoromethyl)-5,6-dihydro-4H-1,3-oxazin-4-yl)-4,5-difluorophenyl)-5-cyano-3-methylpicolinamide], the pIC50 in test [2] was 7.80; in test [3] (setting [7]), 7.26; at Cathepsin D (Cat D) (average), 3.25.

Regarding `N#Cc1cnc(C(=O)Nc2cc(F)c(F)c([C@]3(CF)C[C@@H](C(F)(F)F)OC(N)=N3)c2)c(F)c1` [Example 234, N-(3-((4S,6S)-2-amino-4-(fluoromethyl)-6-(trifluoromethyl)-5,6-dihydro-4H-1,3-oxazin-4-yl)-4,5-difluorophenyl)-5-cyano-3-fluoropicolinamide], the results for the pIC50 (in test [2]; in test [3] (setting [8]); at Cathepsin D (Cat D) (average)) were 7.42, 7.24 and below 3.40, respectively.

For `NC1=N[C@](CF)(c2cc(Oc3cc(-c4ccccc4)cc(Cl)n3)ccc2F)C[C@@H](C(F)(F)F)O1` [Example 235, (4S,6S)-4-(5-((6-chloro-4-phenylpyridin-2-yl)oxy)-2-fluorophenyl)-4-(fluoromethyl)-6-(trifluoromethyl)-5,6-dihydro-4H-1,3-oxazin-2-amine], the pIC50 was below 4.40 in test [2], 5.09 in test [3] (setting [7]) and below 3.88 on Cathepsin D (Cat D) (average).

Turning to `C[C@@]1(c2cc(NC(=O)c3ccc(C#N)cn3)cc(F)c2Cl)C[C@@H](C(F)(F)F)OC(N)=N1` [Example 238, N-(3-((4S,6S)-2-amino-4-methyl-6-(trifluoromethyl)-5,6-dihydro-4H-1,3-oxazin-4-yl)-4-chloro-5-fluorophenyl)-5-cyanopicolinamide], the pIC50 in test [2] was 8.10; in test [3] (setting [7]), 8.22; on Cathepsin D (Cat D) (average), 3.88.

As to `COc1cnc(C(=O)Nc2cc(F)c(F)c([C@]3(C)C[C@@H](C(F)(F)F)OC(N)=N3)c2)c(F)c1` [Example 239, N-(3-((4S,6S)-2-amino-4-methyl-6-(trifluoromethyl)-5,6-dihydro-4H-1,3-oxazin-4-yl)-4,5-difluorophenyl)-3-fluoro-5-methoxypicolinamide], the values for the pIC50 (in test [2]; in test [3] (setting [7]); on Cathepsin D (Cat D) (average)) were 7.48, 7.92 and 2.93, respectively.

For `C[C@@]1(c2cc(NC(=O)c3ncc(Br)cc3Cl)cc(F)c2F)C[C@@H](C(F)(F)F)OC(N)=N1` [Example 240, N-(3-((4S,6S)-2-amino-4-methyl-6-(trifluoromethyl)-5,6-dihydro-4H-1,3-oxazin-4-yl)-4,5-difluorophenyl)-5-bromo-3-chloropicolinamide], the pIC50 was 7.70 in test [2], 7.66 in test [3] (setting [8]) and 3.03 on Cathepsin D (Cat D) (average).

The values are drawn from patent publication US9296734B2 (AMGEN INC., priority 2013, dated 2016).
